Test results reported in patent US20250313563A1, “GLYCOGEN SYNTHASE KINASE 3 INHIBITORS AND USES THEREOF” (The Broad Institute, Inc., priority 2022, published 2025).
Like-named read-outs stand apart in the source and are kept apart here. Each block holds one compound with its values, some of them ahead of it.

Legend:
[1] = biological target: GSK3α (GST-full length GSK3α) (Homo sapiens (Human), UniProt P49840); test: GSK3α TR-FRET kinase assay; format: biochemical
Method: (§1) TR-FRET Assay: The assay was performed in a white, 384 well, low volume, flat bottom plate (Grenier). After a 30 minute preincubation in assay buffer with the indicated concentration of compound, the kinase activity was initiated by the addition of the substrates. 1 nM GSK3α (GST-full length GSK3α [SignalChem G08-10G]) or 1 nM GSK3b (GST-full length GSK3b: [SignalChem G08-9G]) were then incubated at ambient temperature for 100 minutes in 10 μL of 50 mM Tris, pH 7.5, 20 mM MgCl2, 0.05 mM DTT, 100 μg/mL BSA and 1% DMSO, with 200 nM biotinylated peptide substrate (biotinylated and S645 phosphorylated glycogen synthase 631-650) and either 4 μM ATP (GSK3α, Table 16) or 2 μM ATP (GSK3b, Table 16) or 1 mM ATP (Table 17). The kinase activity was quenched with 2 μL of 250 mM EDTA. A 10 μL volume of 40 nM Strepavidin-d2, 2 nM Tb^2+-pSer641 antibody in TR-FRET Detection Buffer (Invitrogen) was then added. After 60 min at room temperature the plate was read on Envision plate reader using Ex: 340 nm, Em: 615 nm and […]. The normalized 665/615 Signal ratio versus log compound concentration was analyzed by XLFIT to yield IC50 values.

[2] = biological target: GSK3b (GST-full length GSK3b) (Homo sapiens (Human), UniProt P49841); test: GSK3b TR-FRET kinase assay; format: biochemical
Method: as §1

[3] = 1 nM GSK3α, 4 μM ATP, 30 minute preincubation, geometric mean, read-out: GSK3-A TR-FRET BIOCHEMICAL (TR-FRET), GMean, IC50
[4] = 1 nM GSK3b, 2 μM ATP, 30 minute preincubation, geometric mean, read-out: GSK3-B TR-FRET BIOCHEMICAL (TR-FRET), GMean, IC50
[5] = 1 nM GSK3α, 4 μM ATP, 30 minute preincubation, Table 16, read-out: GSK3-A TR-FRET BIOCHEMICAL (TR-FRET), IC50
[6] = 1 nM GSK3b, 2 μM ATP, 30 minute preincubation, Table 16, read-out: GSK3-B TR-FRET BIOCHEMICAL (TR-FRET), IC50
[7] = GSK3-A (TR-FRET 1 mM ATP), GMean, IC50, 1 mM ATP, geometric mean
[8] = GSK3-B (TR-FRET 1 mM ATP), GMean, IC50, 1 mM ATP, geometric mean
[9] = 1 nM GSK3α, 4 μM ATP, 30 minute preincubation, Table 16, read-out: GSK3-A TR-FRET BIOCHEMICAL (TR-FRET)
[10] = 1 nM GSK3b, 2 μM ATP, 30 minute preincubation, Table 16, read-out: GSK3-B TR-FRET BIOCHEMICAL (TR-FRET)
[11] = read-out: GSK3-A (TR-FRET 1 mM ATP), GMean, IC50, 1 mM ATP, geometric mean
[12] = read-out: GSK3-B (TR-FRET 1 mM ATP), GMean, IC50, 1 mM ATP, geometric mean
[13] = 1 nM GSK3b, 2 μM ATP, 30 minute preincubation, read-out: GSK3-B TR-FRET BIOCHEMICAL (TR-FRET), IC50

Sequence of GSK3α (GST-full length GSK3α) (P49840 whole entry): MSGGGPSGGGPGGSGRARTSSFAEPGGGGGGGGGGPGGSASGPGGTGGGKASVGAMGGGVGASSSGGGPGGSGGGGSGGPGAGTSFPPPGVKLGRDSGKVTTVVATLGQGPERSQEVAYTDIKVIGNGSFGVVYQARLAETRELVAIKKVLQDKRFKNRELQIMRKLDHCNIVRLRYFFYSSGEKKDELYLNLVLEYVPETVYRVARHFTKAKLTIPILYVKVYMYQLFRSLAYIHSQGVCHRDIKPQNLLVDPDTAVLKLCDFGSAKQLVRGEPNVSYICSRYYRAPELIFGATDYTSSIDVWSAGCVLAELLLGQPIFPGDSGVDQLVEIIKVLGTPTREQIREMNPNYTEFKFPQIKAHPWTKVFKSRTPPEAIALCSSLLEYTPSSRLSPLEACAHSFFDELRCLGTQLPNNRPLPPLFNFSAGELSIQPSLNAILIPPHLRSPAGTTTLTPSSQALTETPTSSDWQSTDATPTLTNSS
Sequence of GSK3b (GST-full length GSK3b) (P49841 whole entry): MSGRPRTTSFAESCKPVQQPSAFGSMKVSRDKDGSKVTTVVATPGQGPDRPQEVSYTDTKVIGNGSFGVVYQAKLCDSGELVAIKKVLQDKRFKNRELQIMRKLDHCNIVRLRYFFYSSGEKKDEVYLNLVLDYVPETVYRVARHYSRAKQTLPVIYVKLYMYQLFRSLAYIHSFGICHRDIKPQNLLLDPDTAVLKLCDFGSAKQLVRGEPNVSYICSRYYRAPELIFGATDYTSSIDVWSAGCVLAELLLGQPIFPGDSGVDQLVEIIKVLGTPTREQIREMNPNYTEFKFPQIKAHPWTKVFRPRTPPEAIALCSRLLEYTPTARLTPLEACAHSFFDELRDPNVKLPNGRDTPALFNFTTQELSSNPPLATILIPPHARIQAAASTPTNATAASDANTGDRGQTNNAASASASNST

SMILES: CCC1(c2cccc(-c3ccncc3C)c2)C2=C(CC(C)(COC)NC2=O)Nc2n[nH]cc21 (mixture of isomers) [Compound 948127]
- IC50 [1, 3]: 0.1 to 1 µM
- IC50 [2, 4]: > 5 µM

SMILES: CCC1(c2cccc(C(F)(F)F)c2)C2=C(Nc3n[nH]cc31)C(F)C(C)(C)CC2=O (single isomer, unassigned) [Compound 837683, 4-ethyl-8-fluoro-7,7-dimethyl-4-(3-(trifluoromethyl)phenyl)-2,4,6,7,8,9-hexahydro-5H-pyrazolo[3,4-b]quinolin-5-one]
- IC50 [1, 3]: ≤ 0.1 µM
- IC50 [1, 7]: 0.1 to 1 µM
- IC50 [2, 4]: 0.1 to 1 µM
- IC50 [2, 8]: > 5 µM

SMILES: CCC1(c2cccc(C(F)(F)F)c2)C2=C(Nc3n[nH]cc31)C(F)C(C)(C)CC2=O (single isomer, unassigned) [Compound 837753, 4-ethyl-8-fluoro-7,7-dimethyl-4-(3-(trifluoromethyl)phenyl)-2,4,6,7,8,9-hexahydro-5H-pyrazolo[3,4-b]quinolin-5-one]
- IC50 [1, 3]: 0.1 to 1 µM
- IC50 [1, 7]: > 5 µM
- IC50 [2, 4]: > 5 µM
- IC50 [2, 8]: > 5 µM

SMILES: CCC1(c2cccc(C(F)(F)F)c2)C2=C(Nc3n[nH]cc31)C(F)C(C)(C)CC2=O (single isomer, unassigned) [Compound 837803, 4-ethyl-8-fluoro-7,7-dimethyl-4-(3-(trifluoromethyl)phenyl)-2,4,6,7,8,9-hexahydro-5H-pyrazolo[3,4-b]quinolin-5-one]
- IC50 [1, 3]: 1 to 5 µM
- IC50 [1, 7]: > 5 µM
- IC50 [2, 4]: > 5 µM
- IC50 [2, 8]: > 5 µM

SMILES: CC1(C)CC(=O)C2=C(C1)Nc1n[nH]cc1[C@]21CO[C@@H](C2CC2)C1 (stereo in doubt) [Compound 913185]
- IC50 [1, 9]: 0.1 to 1 µM
- IC50 [2, 10]: 1 to 5 µM

SMILES: CC(C)(C)Cc1[nH]nc2c1C1(CN(C(=O)OCc3ccccc3)C1)C1=C(CC(C)(C)CC1=O)N2 [Compound 90330]
- IC50 [1, 11]: > 5 µM
- IC50 [2, 12]: > 5 µM

SMILES: CC(C)(C)Cc1[nH]nc2c1C1(CCN(c3ccccc3)CC1)C1=C(CC(C)(C)CC1=O)N2 [Compound 92315]
- IC50 [1, 11]: > 5 µM
- IC50 [2, 12]: > 5 µM

SMILES: CC(C)(C)Cc1[nH]nc2c1[C@@](C)(c1cccc(S(=O)(=O)CC3CC3)c1)C1=C(CC(C)(C)NC1=O)N2 [Compound 108006]
- IC50 [1, 11]: > 5 µM
- IC50 [2, 12]: > 5 µM

SMILES: CC(C)(C)Cc1[nH]nc2c1C(C)(c1cccc(S(=O)(=O)N3CCCC3)c1)C1=C(CC(C)(C)NC1=O)N2 (centres unmarked) [Compound 108791]
- IC50 [1, 11]: 1 to 5 µM
- IC50 [2, 12]: 0.1 to 1 µM

SMILES: CC(C)(C)Cc1[nH]nc2c1[C@@](C)(c1cccc(S(=O)(=O)N3CCCC3)c1)C1=C(CC(C)(C)NC1=O)N2 [Compound 108794]
- IC50 [1, 11]: > 5 µM
- IC50 [2, 12]: > 5 µM

SMILES: COc1cncc(F)c1-c1cccc([C@@]2(C)C3=C(CC(C)(C)CC3=O)Nc3n[nH]c(CC(C)(C)C)c32)c1 [Compound 108956]
- IC50 [1, 11]: > 5 µM
- IC50 [2, 12]: 1 to 5 µM

SMILES: CC1(C)CC2=C(C(=O)N1)[C@](C)(c1cccc(S(C)(=O)=O)c1)c1c(n[nH]c1C1CC1)N2 [Compound 114744]
- IC50 [1, 7]: > 5 µM
- IC50 [2, 8]: > 5 µM

SMILES: CC(C)(C)Cc1[nH]nc2c1C1(COc3ccccc31)C1=C(CC(C)(C)CC1=O)N2 (centres unmarked) [Compound 117093]
- IC50 [1, 11]: 1 to 5 µM
- IC50 [2, 12]: 0.1 to 1 µM

SMILES: CN1CC2(C3=C(CC(C)(C)CC3=O)Nc3n[nH]c(C4CC(F)(F)C4)c32)c2ccccc21 (centres unmarked) [Compound 119047]
- IC50 [1, 11]: 1 to 5 µM
- IC50 [2, 12]: 0.1 to 1 µM

SMILES: CC(C)(C)Cc1[nH]nc2c1C(C)(c1cc(S(C)(=O)=O)ccc1F)C1=C(CC(C)(C)CC1=O)N2 (centres unmarked) [Compound 125977]
- IC50 [2, 12]: > 5 µM

SMILES: CN1CC2(C3=C(CC(C)(C)CC3=O)Nc3n[nH]c(CC(C)(C)C)c32)c2ccccc21 (centres unmarked) [Compound 125979]
- IC50 [1, 11]: > 5 µM
- IC50 [2, 12]: 1 to 5 µM

SMILES: CN(C)S(=O)(=O)c1cccc(C2(C)C3=C(CC(C)(C)CC3=O)Nc3n[nH]c(CC(C)(C)C)c32)c1 (centres unmarked) [Compound 126013]
- IC50 [2, 12]: > 5 µM

SMILES: C[S+]([O-])c1cccc(C2(C)C3=C(CC(C)(C)CC3=O)Nc3n[nH]c(CC(C)(C)C)c32)c1 (centres unmarked) [Compound 126193]
- IC50 [2, 12]: > 5 µM

SMILES: Cn1cc(-c2cccc(C3(C)C4=C(CC(C)(C)CC4=O)Nc4n[nH]c(CC(C)(C)C)c43)c2)cn1 (centres unmarked) [Compound 126394]
- IC50 [1, 11]: > 5 µM

SMILES: Cc1ccc(S(C)(=O)=O)cc1C1(C)C2=C(CC(C)(C)CC2=O)Nc2n[nH]c(CC(C)(C)C)c21 (centres unmarked) [Compound 126398]
- IC50 [2, 12]: > 5 µM

SMILES: CC(C)(C)Cc1[nH]nc2c1C(C)(c1cccc(N3CCOCC3)c1)C1=C(CC(C)(C)CC1=O)N2 (centres unmarked) [Compound 126399]
- IC50 [2, 12]: > 5 µM

SMILES: CCC1(c2cccc(C(F)(F)F)c2)C2=C(Nc3n[nH]cc31)C(C)N(C)C2=O (centres unmarked) [Compound 913454]
- IC50 [2, 10]: 0.1 to 1 µM

SMILES: CC[C@@]1(c2cccc(C(F)(F)F)c2)C2=C(Nc3n[nH]cc31)[C@H](C)N(C)C2=O [Compound 913473]
- IC50 [2, 10]: 0.1 to 1 µM

SMILES: CCC1(c2cccc(-c3cnn(C)c3)c2)C2=C(CC(C)(C)NC2=O)Nc2n[nH]c(C)c21 (centres unmarked) [Compound 944027]
- IC50 [2, 13]: 0.1 to 1 µM

SMILES: CCC1(c2cccc(N3CCCCC3)c2)C2=C(CC(C)(C)NC2=O)Nc2n[nH]c(C(F)(F)F)c21 (centres unmarked) [Compound 947861]
- IC50 [2, 12]: 0.1 to 1 µM

SMILES: CCC1(c2cccc(C(F)(F)F)c2)C2=C(CCN(c3cccc(C)c3)C2=O)Nc2n[nH]cc21 (centres unmarked) [Compound 948052]
- IC50 [2, 4]: 0.1 to 1 µM

Other lines, results leading:

- IC50 [1, 3]: ≤ 0.1 µM
- IC50 [2, 4]: 0.1 to 1 µM
SMILES: CCC1(c2cccc(C(F)(F)F)c2)C2=C(CC(C)CC2=O)Nc2n[nH]cc21 (mixture of isomers) [Compound 801397]

- IC50 [1, 3]: ≤ 0.1 µM
- IC50 [2, 4]: 0.1 to 1 µM
SMILES: CCC1(c2cccc(Br)c2)C2=C(CC(C)(C)C(F)C2=O)Nc2n[nH]cc21 (mixture of isomers) [Compound 826764]

- IC50 [1, 5]: 0.1 to 1 µM
- IC50 [2, 6]: 0.1 to 1 µM
SMILES: CCC1(c2cccc(N3CCCC3C)c2)C2=C(CC(C)(C)CC2=O)Nc2n[nH]cc21 (mixture of isomers) [Compound 885188]

- IC50 [1, 5]: 0.1 to 1 µM
- IC50 [2, 6]: 0.1 to 1 µM
SMILES: CCC1(c2cccc(N3CCCCC3C)c2)C2=C(CC(C)(C)CC2=O)Nc2n[nH]cc21 (mixture of isomers) [Compound 885217]

- IC50 [1, 9]: ≤ 0.1 µM
- IC50 [1, 7]: 0.1 to 1 µM
- IC50 [2, 10]: ≤ 0.1 µM
- IC50 [2, 8]: > 5 µM
SMILES: CCC1(c2cccc(-c3cn(C)nc3C)c2)C2=C(Nc3n[nH]cc31)C(F)C(C)(C)CC2=O (single isomer, unassigned) [Compound 947650, 4-(3-(1,3-dimethyl-1H-pyrazol-4-yl)phenyl)-4-ethyl-8-fluoro-7,7-dimethyl-2,4,6,7,8,9-hexahydro-5H-pyrazolo[3,4-b]quinolin-5-one]

- IC50 [1, 9]: ≤ 0.1 µM
- IC50 [1, 7]: 0.1 to 1 µM
- IC50 [2, 10]: 0.1 to 1 µM
- IC50 [2, 8]: > 5 µM
SMILES: CCC1(c2cccc(-c3cn(C)nc3C)c2)C2=C(Nc3n[nH]cc31)C(F)C(C)(C)CC2=O (single isomer, unassigned) [Compound 947652, 4-(3-(1,3-dimethyl-1H-pyrazol-4-yl)phenyl)-4-ethyl-8-fluoro-7,7-dimethyl-2,4,6,7,8,9-hexahydro-5H-pyrazolo[3,4-b]quinolin-5-one]

- IC50 [1, 9]: ≤ 0.1 µM
- IC50 [2, 10]: 0.1 to 1 µM
SMILES: CCC1(c2cccc(-c3cn(C)nc3C)c2)C2=C(Nc3n[nH]cc31)C(F)C(C)(C)CC2=O (single isomer, unassigned) [Compound 947653, 4-(3-(1,3-dimethyl-1H-pyrazol-4-yl)phenyl)-4-ethyl-8-fluoro-7,7-dimethyl-2,4,6,7,8,9-hexahydro-5H-pyrazolo[3,4-b]quinolin-5-one]

- IC50 [2, 4]: 0.1 to 1 µM
SMILES: CCC1(c2cccc(C3CCOCC3)c2)C2=C(CC(C)(C)CC2=O)Nc2n[nH]cc21 (centres unmarked) [Compound 791273]

- IC50 [2, 4]: 0.1 to 1 µM
SMILES: CCC1(c2cccc(-c3ccncn3)c2)C2=C(CC(C)(C)CC2=O)Nc2n[nH]cc21 (centres unmarked) [Compound 810488]

- IC50 [2, 13]: 0.1 to 1 µM
SMILES: CCC1(c2cccc(C(F)(F)F)c2)C2=C(CC(C)NC2=O)Nc2n[nH]cc21 (centres unmarked) [Compound 912096]

- IC50 [2, 10]: 0.1 to 1 µM
SMILES: CCC1(c2cccc(-c3ncnn3C)c2)C2=C(CC(C)(C)CC2=O)Nc2n[nH]cc21 (centres unmarked) [Compound 945472]

- IC50 [2, 10]: 0.1 to 1 µM
SMILES: CCC1(c2cccc(N(C)c3cc(C)ccn3)c2)C2=C(CC(C)(C)CC2=O)Nc2n[nH]cc21 (centres unmarked) [Compound 945609]

- IC50 [2, 12]: 0.1 to 1 µM
SMILES: CCC1(c2cccc(-c3c(C)nnn3C)c2)C2=C(CC(C)(C)CC2=O)Nc2n[nH]cc21 (centres unmarked) [Compound 946099]
